Changes are numbered by the printed parent chain.

The target in the first assay is T1, AR protein (Homo sapiens, UniProt P10275, T878A).
T1 construct: degradation activity of the compounds disclosed in the present disclosure on AR protein in LNCaP cells; host or cells: LNCaP FGC
T1 sequence (P10275 1-920 T878A): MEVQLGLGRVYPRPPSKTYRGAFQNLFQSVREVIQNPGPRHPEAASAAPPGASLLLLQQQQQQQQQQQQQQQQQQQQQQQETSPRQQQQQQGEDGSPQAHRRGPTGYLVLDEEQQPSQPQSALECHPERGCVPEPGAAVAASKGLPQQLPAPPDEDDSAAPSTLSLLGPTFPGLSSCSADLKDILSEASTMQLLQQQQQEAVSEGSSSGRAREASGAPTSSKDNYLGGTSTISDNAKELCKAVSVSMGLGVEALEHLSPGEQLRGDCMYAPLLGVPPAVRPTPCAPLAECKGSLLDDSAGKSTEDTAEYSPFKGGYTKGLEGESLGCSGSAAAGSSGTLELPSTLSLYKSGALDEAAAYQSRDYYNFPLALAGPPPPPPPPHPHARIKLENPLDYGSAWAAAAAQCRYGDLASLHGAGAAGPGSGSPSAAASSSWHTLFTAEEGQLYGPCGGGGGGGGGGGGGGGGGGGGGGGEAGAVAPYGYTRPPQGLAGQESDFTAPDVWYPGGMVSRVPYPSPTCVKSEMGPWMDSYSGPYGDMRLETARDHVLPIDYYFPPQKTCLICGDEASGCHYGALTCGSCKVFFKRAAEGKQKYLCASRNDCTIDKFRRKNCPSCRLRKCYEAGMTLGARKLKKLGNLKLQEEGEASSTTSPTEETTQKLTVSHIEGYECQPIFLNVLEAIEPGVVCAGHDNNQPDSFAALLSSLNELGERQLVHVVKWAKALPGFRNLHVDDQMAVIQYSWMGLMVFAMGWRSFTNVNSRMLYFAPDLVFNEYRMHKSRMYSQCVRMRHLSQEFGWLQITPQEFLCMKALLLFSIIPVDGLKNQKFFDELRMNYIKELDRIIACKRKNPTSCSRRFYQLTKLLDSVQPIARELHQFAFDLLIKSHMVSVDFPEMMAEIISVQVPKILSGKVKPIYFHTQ
The assay is described as follows: Degradation of AR protein in LNCaP cells (Western blot). The note with it: LNCaP cells, compound 10 nM, 8 hours, Western blot grayscale, GAPDH internal reference; read-out: Degradation rates of the AR protein in LNCaP cells, 10 nM (%). The assay is classed as cell-based. The essentials: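 Percent AR degradation was derived from GAPDH-normalised Western blot band intensities (infrared detection) in LNCaP lysates.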
A general note: A western blot detects proteins with antibodies after separation by electrophoresis.
As to `N#Cc1ccc(O[C@H]2CC[C@H](NC(=O)c3ccc(N4CC[C@@H](CN5CCC6(CC5)COc5cc7c(cc56)C(=O)N(C5CCC(=O)NC5=O)C7=O)C4)nn3)CC2)cc1Cl` (stereo partly drawn) [Compound 57], the inhibition at 0.01 µM came out at 45%.
Same read-out and setting: in the case of `N#Cc1ccc(O[C@H]2CC[C@H](NC(=O)c3ccc(N4CC[C@H](CN5CCC6(CC5)COc5cc7c(cc56)C(=O)N(C5CCC(=O)NC5=O)C7=O)C4)nn3)CC2)cc1Cl` (stereo partly drawn) [Compound 58] it was 33%.
Consider `N#Cc1ccc(O[C@H]2CC[C@H](NC(=O)c3ccc(N4CC(CN5CCC6(CC5)COc5cc7c(cc5C6)C(=O)N(C5CCC(=O)NC5=O)C7=O)C4)nn3)CC2)cc1Cl` (stereo partly drawn) [Compound 59], for which the inhibition at 0.01 µM amounted to 43%.

Still in this assay, the particulars now being: LNCaP cells, compound 100 nM, 8 hours, Western blot grayscale, GAPDH internal reference; read-out: Degradation rates of the AR protein in LNCaP cells, 100 nM (%).
In the case of `N#Cc1ccc(O[C@H]2CC[C@H](NC(=O)c3ccc(N4CC[C@@H](CN5CCC6(CC5)COc5cc7c(cc56)C(=O)N(C5CCC(=O)NC5=O)C7=O)C4)nn3)CC2)cc1Cl` (stereo partly drawn) [Compound 57], the inhibition at 0.1 µM is 72%.
Take `N#Cc1ccc(O[C@H]2CC[C@H](NC(=O)c3ccc(N4CC[C@H](CN5CCC6(CC5)COc5cc7c(cc56)C(=O)N(C5CCC(=O)NC5=O)C7=O)C4)nn3)CC2)cc1Cl` (stereo partly drawn) [Compound 58]: the inhibition at 0.1 µM came to 58%.
In the case of `N#Cc1ccc(O[C@H]2CC[C@H](NC(=O)c3ccc(N4CC(CN5CCC6(CC5)COc5cc7c(cc5C6)C(=O)N(C5CCC(=O)NC5=O)C7=O)C4)nn3)CC2)cc1Cl` (stereo partly drawn) [Compound 59], the inhibition at 0.1 µM was 66%.

The next assay deals with T2, AR protein (Homo sapiens, UniProt P10275).
T2 construct: degradation activity of the compounds disclosed in the present disclosure on AR protein in VCaP cells; host or cells: VCaP
T2 sequence (P10275 1-920): T1 sequence (P10275 1-920 T878A) with A878T
The assay is described as follows: Degradation of AR protein in VCaP cells (Western blot). Type of assay: cell-based. The note with it: compound at 10 nM, 8 hours, read-out: Degradation rate of the AR protein in VCaP cells, 10 nM (%). The essentials: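 Western blot readout: AR band grayscale normalised to GAPDH, used to derive degradation rate. Lysates came from VCaP cells exposed to compound for 8 h, with solvent controls run in parallel.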
As to `N#Cc1ccc(O[C@H]2CC[C@H](NC(=O)c3ccc(N4CC[C@@H](CN5CCC6(CC5)COc5cc7c(cc56)C(=O)N(C5CCC(=O)NC5=O)C7=O)C4)nn3)CC2)cc1Cl` (stereo partly drawn) [Compound 57], the inhibition at 0.01 µM was 66%.
On the same count and under the same terms, in the case of `N#Cc1ccc(O[C@H]2CC[C@H](NC(=O)c3ccc(N4CC[C@H](CN5CCC6(CC5)COc5cc7c(cc56)C(=O)N(C5CCC(=O)NC5=O)C7=O)C4)nn3)CC2)cc1Cl` (stereo partly drawn) [Compound 58] it was 91%.
Consider `N#Cc1ccc(O[C@H]2CC[C@H](NC(=O)c3ccc(N4CC(CN5CCC6(CC5)COc5cc7c(cc5C6)C(=O)N(C5CCC(=O)NC5=O)C7=O)C4)nn3)CC2)cc1Cl` (stereo partly drawn) [Compound 59], for which the inhibition at 0.01 µM came out at 86%.

The assay is the same for the next values; noted with them: compound at 100 nM, 8 hours, read-out: Degradation rate of the AR protein in VCaP cells, 100 nM (%).
`N#Cc1ccc(O[C@H]2CC[C@H](NC(=O)c3ccc(N4CC[C@@H](CN5CCC6(CC5)COc5cc7c(cc56)C(=O)N(C5CCC(=O)NC5=O)C7=O)C4)nn3)CC2)cc1Cl` (stereo partly drawn) [Compound 57]: the inhibition at 0.1 µM came to 80%.
`N#Cc1ccc(O[C@H]2CC[C@H](NC(=O)c3ccc(N4CC[C@H](CN5CCC6(CC5)COc5cc7c(cc56)C(=O)N(C5CCC(=O)NC5=O)C7=O)C4)nn3)CC2)cc1Cl` (stereo partly drawn) [Compound 58]: the inhibition at 0.1 µM was determined as 93%.
For `N#Cc1ccc(O[C@H]2CC[C@H](NC(=O)c3ccc(N4CC(CN5CCC6(CC5)COc5cc7c(cc5C6)C(=O)N(C5CCC(=O)NC5=O)C7=O)C4)nn3)CC2)cc1Cl` (stereo partly drawn) [Compound 59], the inhibition at 0.1 µM is 87%.

A further assay concerns LNCaP FGC cells. Kind of assay: Inhibition of proliferation of LNCaP cells (WST-8). The note with it: Homo sapiens, LNCaP, 96 h, LNCaP FGC cells, 96 hours, WST-8 absorbance at 450 nm; read-out: IC50 for inhibiting the proliferation of LNCaP cells. The assay is classed as cell-based. The procedure: The cells were cultured in a cell culture incubator with 5% CO2 at 37° C. overnight. […] On the sixth day, 96 well plates were taken out, and 20 μL of WST-8 (Beytime, C0040) reagent was added to each well.
Background: Tetrazolium assays rely on reduction of a dye to a coloured formazan, in cell work by metabolically active cells.
In the case of `N#Cc1ccc(O[C@H]2CC[C@H](NC(=O)c3ccc(N4CC[C@@H](CN5CCC6(CC5)COc5cc7c(cc56)C(=O)N(C5CCC(=O)NC5=O)C7=O)C4)nn3)CC2)cc1Cl` (stereo partly drawn) [Compound 57], the IC50 was 1360 nM.
Turning to `N#Cc1ccc(O[C@H]2CC[C@H](NC(=O)c3ccc(N4CC[C@H](CN5CCC6(CC5)COc5cc7c(cc56)C(=O)N(C5CCC(=O)NC5=O)C7=O)C4)nn3)CC2)cc1Cl` (stereo partly drawn) [Compound 58], the IC50 came to 1800 nM.
Take `N#Cc1ccc(O[C@H]2CC[C@H](NC(=O)c3ccc(N4CC(CN5CCC6(CC5)COc5cc7c(cc5C6)C(=O)N(C5CCC(=O)NC5=O)C7=O)C4)nn3)CC2)cc1Cl` (stereo partly drawn) [Compound 59]: the IC50 turned out to be 400 nM.

The next assay concerns VCaP cells. The assay is described as follows: Inhibition of proliferation of VCaP cells (WST-8). Conditions: Homo sapiens; VCaP cells, 168 hours, WST-8 absorbance at 450 nm; read-out: IC50 for inhibiting the proliferation of VCaP cells. Type of assay: cell-based. The essentials:
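Proliferation was read by WST-8 on day nine. Cells were VCaP FGC, seeded at 15000 cells per well in 10% FBS DMEM and kept at 37° C with 5% CO2.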
`N#Cc1ccc(O[C@H]2CC[C@H](NC(=O)c3ccc(N4CC[C@@H](CN5CCC6(CC5)COc5cc7c(cc56)C(=O)N(C5CCC(=O)NC5=O)C7=O)C4)nn3)CC2)cc1Cl` (stereo partly drawn) [Compound 57]: the IC50 worked out at 38 nM.
As for `N#Cc1ccc(O[C@H]2CC[C@H](NC(=O)c3ccc(N4CC[C@H](CN5CCC6(CC5)COc5cc7c(cc56)C(=O)N(C5CCC(=O)NC5=O)C7=O)C4)nn3)CC2)cc1Cl` (stereo partly drawn) [Compound 58], the IC50 was determined as 69 nM.
On the same count and under the same terms, for `N#Cc1ccc(O[C@H]2CC[C@H](NC(=O)c3ccc(N4CC(CN5CCC6(CC5)COc5cc7c(cc5C6)C(=O)N(C5CCC(=O)NC5=O)C7=O)C4)nn3)CC2)cc1Cl` (stereo partly drawn) [Compound 59] the value was 110 nM.

These data come from patent US20260234157A1, “COMPOUND AND METHOD FOR TARGETED DEGRADATION OF ANDROGEN RECEPTOR” (Gan & Lee Pharmaceuticals Co., Ltd., priority 2023, published 2026).
